Experimental data published in the supplement of paper PMC10307832.

Assays:
Experiment in all cases: relative viability (nuclei count vs DMSO), 5 days (fraction); higher = more cells survive
Vismodegib + Lapatinib = compound: CS(=O)(=O)c1ccc(C(=O)Nc2ccc(Cl)c(-c3ccccn3)c2)c(Cl)c1 [Vismodegib] + CS(=O)(=O)CCNCc1ccc(-c2ccc3ncnc(Nc4ccc(OCc5cccc(F)c5)c(Cl)c4)c3c2)o1 [Lapatinib] (partner 2 µM)
Method in brief: (§1)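 Relative viability equals treated-well nuclei counts divided by vehicle-well nuclei counts. Counts came from 4× images of lung cancer cell lines grown in 1536-well plates for 5 days after pin-tool dosing on the day after seeding. Dosing used one drug alone or a fixed anchor-drug dose plus five library-drug doses (not always all listed) in √10 steps, and values are medians of duplicate plates.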

Vismodegib + Olaparib = compound: CS(=O)(=O)c1ccc(C(=O)Nc2ccc(Cl)c(-c3ccccn3)c2)c(Cl)c1 [Vismodegib] + O=C(c1cc(Cc2n[nH]c(=O)c3ccccc23)ccc1F)N1CCN(C(=O)C2CC2)CC1 [Olaparib] (partner 8 µM)
Method in brief: as §1

VE-821 + Palbociclib = compound: CS(=O)(=O)c1ccc(-c2cnc(N)c(C(=O)Nc3ccccc3)n2)cc1 [VE-821] + CC(=O)c1c(C)c2cnc(Nc3ccc(N4CCNCC4)cn3)nc2n(C2CCCC2)c1=O [Palbociclib] (partner 0.5 µM)
Method in brief: as §1

VE-821 + Pictilisib = compound: CS(=O)(=O)c1ccc(-c2cnc(N)c(C(=O)Nc3ccccc3)n2)cc1 [VE-821] + CS(=O)(=O)N1CCN(Cc2cc3nc(-c4cccc5[nH]ncc45)nc(N4CCOCC4)c3s2)CC1 [Pictilisib] (partner 1 µM)
Method in brief: as §1

Cell Line	relative viability (Vismodegib + Lapatinib; first compound 0.08 µM)	relative viability (Vismodegib + Lapatinib; first compound 0.253 µM)	relative viability (Vismodegib + Lapatinib; first compound 0.8 µM)	relative viability (Vismodegib + Lapatinib; first compound 2.53 µM)	relative viability (Vismodegib + Lapatinib; first compound 8 µM)	relative viability (Vismodegib + Olaparib; first compound 0.08 µM)	relative viability (Vismodegib + Olaparib; first compound 0.253 µM)	relative viability (Vismodegib + Olaparib; first compound 0.8 µM)	relative viability (Vismodegib + Olaparib; first compound 2.53 µM)	relative viability (Vismodegib + Olaparib; first compound 8 µM)	relative viability (VE-821 + Palbociclib; first compound 0.08 µM)	relative viability (VE-821 + Palbociclib; first compound 0.253 µM)	relative viability (VE-821 + Palbociclib; first compound 0.8 µM)	relative viability (VE-821 + Palbociclib; first compound 2.53 µM)	relative viability (VE-821 + Palbociclib; first compound 8 µM)	relative viability (VE-821 + Pictilisib; first compound 0.08 µM)	relative viability (VE-821 + Pictilisib; first compound 0.253 µM)	relative viability (VE-821 + Pictilisib; first compound 0.8 µM)	relative viability (VE-821 + Pictilisib; first compound 2.53 µM)	relative viability (VE-821 + Pictilisib; first compound 8 µM)
NCI-H1650	0.704	0.767	0.666	0.806	0.748	0.896	0.633	0.763	0.794	0.746	0.342	0.324	0.329	0.4	0.336	0.677	0.506	0.57	0.638	0.499
NCI-H2023	0.426	0.871	0.738	0.76	0.935	0.496	0.448	0.519	0.44	0.541	0.452	0.346	0.317	0.297	0.124	0.278	0.223	0.191	0.194	0.135
SK-LU-1	0.769	0.887	0.991	0.776	0.884	0.343	0.451	0.481	0.469	0.522	0.408	0.424	0.323	0.376	0.261	0.602	0.557	0.621	0.432	0.316
NCI-H2347	0.962	0.989	0.901	0.808	0.938	0.579	0.548	0.621	0.615	0.597	0.385	0.492	0.42	0.457	0.498	0.565	0.583	0.563	0.525	0.485
NCI-H727	0.814	0.653	0.585	0.826	0.874	0.66	0.683	0.76	0.724	0.749	0.737	0.726	0.618	0.638	0.659	0.418	0.314	0.232	0.458	0.227
COR-L23	0.93	0.802	0.901	0.986	1.02	0.35	0.339	0.337	0.281	0.317	0.284	0.307	0.32	0.394	0.307	1.17	0.654	0.961	0.981	0.682
NCI-H2126	0.725	0.746	0.701	0.616	0.729	0.887	0.966	0.928	0.849	0.969	0.36	0.336	0.333	0.296	0.32	0.483	0.436	0.487	0.507	0.439
NCI-H1703	1.12	0.822	1.21	1.16	1.52	0.495	0.42	0.543	0.349	0.44	–	–	–	–	–	0.241	0.233	0.25	0.227	0.192
